Laboratory results published in patent publication US9688721B2, “Tubulysin compounds, methods of making and use” (priority 2013, dated 2017).
Like-named read-outs stand apart in the source and are kept apart here.

Assays:
H226 lung cancer cells = assay: ATP luminescence assay (CELLTITER-GLO), H226 cells; format: cell-based
Experimental: (§1) As controls, doxorubicin and the tubulysin analog Compound A, which contains an acetate group instead of a carbamate group at the Tuv subunit, were used. Compound A can be prepared according to the teachings of Cheng et al. 2011.
(§2) Tumor cell lines were obtained from the American Type Culture Collection (ATCC), P.O. Box 1549, Manassas, Va. 20108, USA, and cultured according to ATCC instructions. Cells were seeded at 1.0×10^3 cells/well in 96-well plates for 3 h for the ATP assays. 1:3 serial dilutions of the compounds were added to the wells. Plates were allowed to incubate for 24 to 72 h. […] The EC50 values—the concentration at which an agent inhibits or reduces cell proliferation by 50%—were determined using PRISM™ software, version 4.0 (GraphPad Software, La Jolla, Calif., USA).

786-O renal cancer cells = assay: ATP luminescence assay (CELLTITER-GLO), 786-O cells; format: cell-based
Experimental: as §1, §2

N87 gastric cancer cells = settings: ATP luminescence assay
Experimental: as §2

For `CC[C@H](C)[C@H](NC(=O)[C@H]1CCCCN1C)C(=O)N(COC(=O)CC(C)C)[C@H](C[C@@H](OC(C)=O)c1nc(C(=O)N[C@@H](Cc2ccccc2)C[C@H](C)C(=O)O)cs1)C(C)C` [tubulysin D, reference compound], the EC50 (H226 lung cancer cells; H226 lung cancer cells, ATP luminescence assay, read-out: EC50) was 0.05 nM and the EC50 (786-O renal cancer cells; 786-O renal cancer cells, ATP luminescence assay, read-out: EC50) was 0.02 nM.

Compound `CC[C@H](C)[C@H](NC(=O)[C@H]1CCCCN1C)C(=O)N(CCc1ccc(N)cc1)[C@H](C[C@@H](OC(=O)NC)c1nc(C(=O)N[C@@H](Cc2ccccc2)CC(C)C(=O)O)cs1)C(C)C` (some centres unmarked) [(I-7)] has an EC50 (H226 lung cancer cells; Homo sapiens, NCI-H226) of 15.4 nM and an EC50 (786-O renal cancer cells; Homo sapiens, 786-0) of 12.5 nM.

`CCOC(=O)C(C)C[C@H](Cc1ccccc1)NC(=O)c1csc([C@@H](C[C@H](C(C)C)N(CCc2ccc(N)cc2)C(=O)[C@@H](NC(=O)[C@H]2CCCCN2C)[C@@H](C)CC)OC(=O)NC)n1` (some centres unmarked) [(I-5)] showed an EC50 (H226 lung cancer cells; Homo sapiens, NCI-H226) of 19.5 nM and an EC50 (786-O renal cancer cells; Homo sapiens, 786-0) of 22.9 nM.

`COc1cccc2c1C(=O)c1c(O)c3c(c(O)c1C2=O)C[C@@](O)(C(=O)CO)C[C@@H]3O[C@H]1C[C@H](N)[C@H](O)[C@H](C)O1` [doxorubicin, reference compound] showed an EC50 (H226 lung cancer cells; Homo sapiens, NCI-H226, H226 lung cancer cells, ATP luminescence assay, read-out: EC50) of 115 nM and an EC50 (786-O renal cancer cells; Homo sapiens, 786-0, 786-O renal cancer cells, ATP luminescence assay, read-out: EC50) of 68.9 nM.

In the case of `CC[C@H](C)[C@H](NC(=O)[C@H]1CCCCN1C)C(=O)N(C)[C@H](C[C@@H](OC(=O)N(C)C)c1nc(C(=O)N[C@@H](Cc2ccc(N)cc2)C[C@H](C)C(=O)O)cs1)C(C)C` [Compound 75c], the EC50 (N87 gastric cancer cells) is reported as 5.4 nM.

Work on `CC[C@H](C)[C@H](NC(=O)[C@H]1CCCCN1C)C(=O)N(CCc1ccc(N)cc1)[C@H](C[C@@H](OC(=O)NC)c1nc(C(=O)N[C@@H](Cc2ccccc2)CC(C)C(=O)OC)cs1)C(C)C` (some centres unmarked) [(I-6)] yielded an EC50 (H226 lung cancer cells; Homo sapiens, NCI-H226) of 9.9 nM and an EC50 (786-O renal cancer cells; Homo sapiens, 786-0) of 22.8 nM.

Work on `CC[C@H](C)[C@H](NC(=O)[C@H]1CCCCN1C)C(=O)N(C)[C@H](C[C@@H](OC(C)=O)c1nc(C(=O)N[C@@H](Cc2ccccc2)C[C@H](C)C(=O)O)cs1)C(C)C` [Compound A, reference compound] yielded an EC50 (H226 lung cancer cells; Homo sapiens, NCI-H226) of 2.4 nM and an EC50 (786-O renal cancer cells; Homo sapiens, 786-0) of 1.2 nM.

In the case of `CC[C@H](C)[C@H](NC(=O)[C@H]1CCCCN1C)C(=O)N(C)[C@H](C[C@@H](OC(=O)Nc1ccccc1)c1nc(C(=O)N[C@@H](Cc2ccc(N)cc2)C[C@H](C)C(=O)O)cs1)C(C)C` [Compound 75b], the EC50 (N87 gastric cancer cells) is reported as 0.39 nM.
